Structures are written as SMILES. Structures can show the parent of a compound that is named as a salt. Where two headings read alike, the source gives them in different places.

These results are taken from patent US5200553A, “Biologically active carboxylic acid esters” (Kupat Holim Health Insurance Institution of the General …, priority 1987, dated 1993).

For data set [1], the system named is leukemic cells from six myeloid leukemic patients. The experiment in a line: Inhibition of cell proliferation, tritiated thymidine incorporation, cells (i). The class given is cell-based, human. Here is the method:
(§1) The compound of the invention prepared in Example I gave the results indicated in paragraphs (a), (b) and (c), below, when tested on: (i) leukemic cells from six myeloid leukemic patients, and (ii) promyelocytic cell line HL-60.
(b) Inhibition of cell proliferation. This was evaluated by inhibition of tritiated thymidine incorporation. The results in the following table are self-explanatory: […]
For orientation: Uptake of a labelled nucleoside into DNA is a usual measure of proliferation.

A further data set concerns human lymphocytes. As to the kind of experiment: Colony stimulating factors (CSF) production by human lymphocytes, CFU-GM from BALB/c mouse bone marrow. In kind it is cell-based. The settings on record: for CSF production, # CFU-GM / CSF production, %: 72 hours incubation; for CSF production, %: PHA = 100.
Data set [2] has as its system leukemic cells from six myeloid leukemic patients. The experiment in a line: Cytotoxicity, viability of cells 60 hours after exposure, Trypan Blue exclusion, cells (i). In kind it is cell-based. The settings on record: Homo sapiens, read-out: Concentration which resulted in 50% inhibition (LD50), viability. As for the experimental part: as §1
(§2) (a) Cytotoxicity. The viability of the cells 60 hours after exposure was determined by Trypan Blue exclusion.

Data set [3] has as its system leukemic cells from six myeloid leukemic patients and promyelocytic cell line HL-60 (which one is not stated). The experiment in a line: Induction of cytodifferentiation, reduction of nitro blue tetrazolium (NBT). In kind it is cell-based. The settings on record: 0.15 mM. As for the experimental part:
(c) Induction of cytodifferentiation. This was evaluated by reduction of nitro blue tetrazolium (NBT), which is indicative of functional maturity of leucocytes.

The subject of data set [4] is B16 Melanoma. As to the kind of experiment: In vivo efficacy, 3B131 intraperitoneally implanted B16 Melanoma. Details: species or system mouse. The settings on record: i.p., 1-9 days, daily.
A short description of data set [5]: Therapeutic index (LD50/ED50), standard procedures. The settings on record: in vivo.
For the next data set, the system named is mouse spleen cells. As to the kind of experiment: Colony stimulating factors (CSF) production by murine splenocytes, CFU-GM from BALB/c mouse bone marrow. In kind it is cell-based. The settings on record: for CSF production, %: ConA = 100.
For data set [6], the system named is promyelocytic cell line HL-60. The experiment in a line: Inhibition of cell proliferation, tritiated thymidine incorporation, cells (ii). The class given is cell-based. The settings on record: for inhibition at 500 µM: Homo sapiens. Here is the method: as §1
(b) Inhibition of cell proliferation. This was evaluated by inhibition of tritiated thymidine incorporation. The results in the following table are self-explanatory:
In a further experiment, cells (ii) were incubated with the compound of Example I or with sodium butyrate. After a period of time as specified in the following table, the agents were removed by washing the cells, and thymidine incorporation was measured 15 hours after the end of incubation.

For another data set, the system named is Lewis Lung Carcinoma. As to the kind of experiment: In vivo efficacy, 3LL32 subcutaneously implanted Lewis Lung Carcinoma. The settings on record: i.p. Set-up: species or system mouse. As for the experimental part:
(§3) Moreover, the in vivo efficacy of the compound of the invention prepared in Example I was tested according to protocols adopted from the "Developmental Therapeutics Program, Division of Cancer Treatment, National Cancer Institute", NIH Publication 84-2635, using the following animal models: (1) 3B131 Intraperitoneally (i.p.) implanted B16 Melanoma; (2) 3B132 Subcutaneously (s.c.) implanted B16 Melanoma: and (3) 3LL32 Subcutaneously (s.c.) implanted Lewis Lung Carcinoma. Results according to the following table were obtained.

Data set [7] relates to promyelocytic cell line HL-60. As to the kind of experiment: Cytotoxicity, viability of cells 60 hours after exposure, Trypan Blue exclusion, cells (ii). In kind it is cell-based. The settings on record: Homo sapiens, read-out: Concentration which resulted in 50% inhibition (LD50), viability. Here is the method: as §1, §2
Data set [8] has as its system B16 Melanoma. As to the kind of experiment: In vivo efficacy, 3B132 subcutaneously implanted B16 Melanoma. The settings on record: 125 mg./kg./mouse, i.p.; 1-6 days, daily. As for the experimental part: as §3
For data set [9] the following is noted: cited from earlier work.
A further data set relates to variety of tumor cells. The settings on record: induction of morphological and biochemical changes; cited from earlier work.
The subject of data set [10] is leukemic cells isolated from myelogenous leukemic patients.
The conditions of data set [11]: in vivo; cited from earlier work.
Data set [12] concerns refractory acute myelogenous leukemia. The settings on record: 0.5 g./kg./day; cited from earlier work.
The next data set has as its system neuroblastoma. The settings on record: doses of up to 10 g./day; cited from earlier work.
For data set [13], the system named is acute myelogenous leukemia. The settings on record: human, in vivo.
For data set [14] the following is noted: cited from earlier work. This is another data set of the same source.
Data set [15] has as its system colony forming units, granulocytes and macrophages (CFU-GM). The settings on record: CFU-GM in soft agar; normal bone marrow and peripheral blood of leukemic patients; unpublished work; cited from earlier work.
A short description of data set [16]: Activity of hydrolysis product under conditions in which the parent compound was active. The settings on record: conditions in which the parent compound (Example I) was active. The source says:
It is postulated that the butyrate esters provided by the invention undergo intracellular hydrolysis to butyric acid; the residual fragments of the hydrolysis would be non-toxic. […] An alternative metabolic route may involve (where appropriate) the oxidation of butyrates to hydroxy-butyrates and/or oxo-butyrates.

Setting [17] is: Experiment 1, 20 μM, 24 hours incubation.

Description for human lymphocytes: (§4) CSF activity was assayed by the ability of the supernatants from these cultures to support development on semisolid agar of CFU-GM (colony forming units--granulocytes and macrophages) from bone marrow cells of BALB/c mice.
Description for mouse spleen cells: as §4

With `CCCC(=O)OCOC(=O)C(C)(C)C` [Example I, Pivaloyloxymethyl butyrate], in [1] (Homo sapiens, 0.1 mM, 15 hrs. exposure), the inhibition at 100 µM is 88%. In addition, the inhibition at 200 µM in data set [1] (Homo sapiens, 0.2 mM, 15 hrs. exposure) was 99%. For the same compound, the “CSF production, # CFU-GM” value is recorded as 10 # CFU-GM with human lymphocytes (Experiment 1, 20 μM); 3 # CFU-GM with human lymphocytes (Experiment 1, 50 μM); 43 # CFU-GM in the data set on human lymphocytes (Experiment 2, 20 μM); 16 # CFU-GM in the data set on human lymphocytes (Experiment 2, 50 μM); 11 # CFU-GM in the data set with mouse spleen cells (setting [17]). The “CSF production, %” value was found to be 33% in the data set on human lymphocytes (Experiment 1, 20 μM); 10% in the data set with human lymphocytes (Experiment 1, 50 μM); 105% in the data set with human lymphocytes (Experiment 2, 20 μM); 39% in the data set with human lymphocytes (Experiment 2, 50 μM); 10% with mouse spleen cells (setting [17]); 0% in the data set on mouse spleen cells (Experiment 1, 50 μM, 24 hours incubation). Besides, the “CSF production (in words)” value in the data set on human lymphocytes (human lymphocytes) and with mouse spleen cells (murine lymphocytes) was “stimulates CSF production” each time. Moreover, the IC50 amounted to 150 µM in [2] and 100 µM in [7]. The “NBT reduction (% of positive cells)” value in data set [3] (incubation 24 hours) was 24 % of positive cells; in [3] (incubation 48 hours), 49 % of positive cells; in data set [3] (incubation 72 hours), 66 % of positive cells; in data set [3] (incubation 96 hours), 77 % of positive cells. Moreover, the “ILS (increased life span compared to untreated animals)” value stood at 154% in the data set on B16 Melanoma [4] (250 mg./kg./mouse); 152% in the data set on Lewis Lung Carcinoma (125 mg./kg./mouse, 1-6 days, daily); 186% with Lewis Lung Carcinoma (125 mg./kg./mouse, 1-18 days, every odd day); 150% in the data set with B16 Melanoma [8]. Also, the selectivity ratio in data set [5] was in the range of 15 to 20. Besides, the inhibition at 500 µM in data set [6] (HL-60, 0.5 mM, incubation 0.5 hours, washed, measured 15 hours after end of incubation, read-out: % inhibition of tritiated thymidine incorporation) came out at 52%; in data set [6] (HL-60, 0.5 mM, incubation 3.0 hours, washed, measured 15 hours after end of incubation, read-out: % inhibition of tritiated thymidine incorporation), 92%; in data set [6] (HL-60, 0.5 mM, incubation 16.0 hours, washed, measured 15 hours after end of incubation, read-out: % inhibition of tritiated thymidine incorporation), 99%; in [6] (HL-60, 0.5 mM, incubation 24.0 hours, washed, measured 15 hours after end of incubation, read-out: % inhibition of tritiated thymidine incorporation), 99%; in data set [6] (HL-60, 0.5 mM, incubation 48.0 hours, washed, measured 15 hours after end of incubation, read-out: % inhibition of tritiated thymidine incorporation) it was 99%; in data set [6] (HL-60, 0.5 mM, incubation 62.0 hours, washed, measured 15 hours after end of incubation, read-out: % inhibition of tritiated thymidine incorporation), 99%. In addition, the inhibition at 500 µM is 52% in [6] (HL-60, 0.5 h, cells (ii), 0.5 mM, 0.5 hr. exposure, read-out: % inhibition of tritiated thymidine incorporation) and 99% in [6] (HL-60, 15 h, cells (ii), 0.5 mM, 15 hrs. exposure, read-out: % inhibition of tritiated thymidine incorporation).
With `CCCC(=O)O` [butyric acid/salts, butyric acid], the induction period in [9] (in vitro) is 48 h; in data set [9] (in vivo), 96 to 120 h. Further, the “anti-tumor activity (in words)” value with variety of tumor cells was “anti-tumor activity”. Further, the “cytotoxic and cytodifferentiating potency (in words)” value in data set [10] is “the most potent cytotoxic and cytodifferentiating agent”. In data set [11], the “clearance (in words)” value is reported as “high clearance”. In addition, in data set [11], the “metabolization (in words)” value is recorded as “rapid metabolization”. Also, the “remission (in words)” value in data set [12] was “partial and temporary remission”. Also, the “toxic effects (in words)” value in data set [12] is on record as “without detectable toxic effects”. Besides, the “inhibition of tritiated thymidine incorporation (in words)” value in data set [1] (24 hours, up to 2 mM) is reported as “no inhibition”; in data set [6] (cells (ii), 24 hours, up to 1 mM) it was “no inhibition”. Moreover, the results for the “toxicity (in words)” value (in the data set with neuroblastoma; in data set [14] (high dosages)) were “no clinically detectable toxicity” and “no toxicity”, respectively. In addition, the IC50 in data set [2] turned out to be 1000 µM; in [7], 400 µM. Further, the “adverse reaction (in words)” value in [13] is on record as “no adverse reaction”. For the same compound, in data set [14] (human, in vivo), the “fluid overload and alkalosis (in words)” value was “fluid overload and mild alkalosis may occur”. Besides, the “selectivity (in words)” value in data set [15] is on record as “selectivity of butyric acid/salts was demonstrated”.
For `N.N.[Cl][Pt][Cl]` [cisplatin, reference compound], the “ILS (increased life span compared to untreated animals)” value in the data set on B16 Melanoma [4] (1.5 mg./kg./mouse) came to 164%.
On to `O=P1(N(CCCl)CCCl)NCCCO1` (stereo not shown) [cytoxan, reference compound], for which the “ILS (increased life span compared to untreated animals)” value in the data set on Lewis Lung Carcinoma (100 mg./kg./mouse, day 1 only) stood at 152%.
For the compound `CC(C)(C)C(=O)O` [pivalic acid], in data set [16], the “activity (in words)” value is given as “shows no activity”.
For `CCCC(=O)[O-].[Na+]` [sodium butyrate, reference compound], the “NBT reduction (% of positive cells)” value in [3] (incubation 24 hours) is reported as 11 % of positive cells; in data set [3] (incubation 48 hours), 29 % of positive cells; in data set [3] (incubation 72 hours), 48 % of positive cells; in data set [3] (incubation 96 hours), 66 % of positive cells. Further, the inhibition at 500 µM in data set [6] (HL-60, read-out: % inhibition of tritiated thymidine incorporation, 0.5 mM, incubation 0.5 hours, washed, measured 15 hours after end of incubation) was 0%; in data set [6] (HL-60, read-out: % inhibition of tritiated thymidine incorporation, 0.5 mM, incubation 3.0 hours, washed, measured 15 hours after end of incubation), 0%; in data set [6] (HL-60, read-out: % inhibition of tritiated thymidine incorporation, 0.5 mM, incubation 16.0 hours, washed, measured 15 hours after end of incubation) it was 0%; in [6] (HL-60, read-out: % inhibition of tritiated thymidine incorporation, 0.5 mM, incubation 24.0 hours, washed, measured 15 hours after end of incubation), 22%; in [6] (HL-60, read-out: % inhibition of tritiated thymidine incorporation, 0.5 mM, incubation 48.0 hours, washed, measured 15 hours after end of incubation) it was 50%; in data set [6] (HL-60, read-out: % inhibition of tritiated thymidine incorporation, 0.5 mM, incubation 62.0 hours, washed, measured 15 hours after end of incubation) it was 94%.
